For one assay, the system named is PC-3 cells. Description: Hoechst dye-DNA fluorescence growth assay, PC-3 cells. Type of assay: cell-based, human. To be noted: varying concentrations (FIG. 8). The procedure:
(§1) For DNA assay, each culture plate was thawed and equilibrated to room temperature under protection from light. Hoechst dye was then added to each well in 200 μL of high salt TNE buffer (10 mM Tris, 1 mM EDTA, 2 M NaCl [pH 7.4]) at a final concentration of 6.7 μg/mL. After further incubation at room temperature for 2 hours under protection from light, culture plates were scanned on the CytoFluor 2350™ scanner using the 360/460 nm filter excitation and emission set. The DNA fluorescence intensity was used as a measure of cell growth.
(§2) The effects of varying concentrations of Mito-T drug on the growth of LNCaP and PC-3 cells over a period of 4 days was assayed using the Hoechst dye-DNA fluorescence assay described above. In these and all subsequent cell culture studies described below, each data point and its associated error bar are respectively, an average value and the standard deviation of data obtained from six wells of a 96-well plate run in duplicate in three separate sets of experiments.

In another assay the test system is LNCaP cells. The assay can be described thus: Hoechst dye-DNA fluorescence growth assay, LNCaP cells. It counts as cell-based, human. To be noted: varying concentrations (FIG. 8). The procedure:
as §1, §2

SMILES strings stand for the structures.

Turning to `CC1(C)CC(OCCCCCCCCCC[P+](c2ccccc2)(c2ccccc2)c2ccccc2)CC(C)(C)N1[O]` [MitoT-10, [4-(10-triphenylphosphonium)decyloxy-2,2,6,6-tetramethylpiperidinyloxy, freeradical]bromide], the growth and proliferation entry with PC-3 cells and with LNCaP cells was “inhibitory effect” each time.

The values above are taken from patent US8466130B2, “Mitochondria targeted cationic anti-oxidant compounds for prevention, therapy or treatment of hyper-proliferative disease, neoplasias and cancers” (Colby Pharmaceutical Company, priority 2009, dated 2013).
